Values after ≈ are worked out from the molar mass of the structure shown.
Tests used:
Type in all cases: cell-based
Trichophyton asteroides = assay: Minimum inhibitory concentration against Trichophyton asteroides, test tube experiment in Sabouraud's dextrose broth
Description: In the test, Sabouraud's dextrose broth* was used.

C. albicans KE-2 = assay: Inhibition test against pseudomycelium formation of Candida albicans; settings: minimum effective concentration preventing typical pseudomycelium formation; EMEM with 20 % calf serum, 1 x 10⁶ yeast cells per milliliter, 18 hr. at 37 °C; read-out: Inhibitory Concentration of Pseudomyselium Formation
Protocol: Inhibition test against pseudomycelium formation of Candida albicans.
C. albicans KE-2 was inoculated to EMEM (Nissan 2 made by Nissui Seiyaku, Ltd.) supplemented with 20 % calf serum so that its final inoculum might be 1 x 10⁶ yeast cells per milliliter. The test compounds were added thereon in two fold dilution series. After inocubation for 18 hr. at 37 °C, the fungal growth in each drug concentration was smeared and fixed on a slide glass, and its morphological feature on the presence or absence of the pseudomycelium formation was examined by a microscope following Giemsa staining. Minimum effective concentration was defined as the lowest concentration of the compound which prevented typical pseudomycelium formation.

[1] = system: influenza virus Ao/WSN (H₁N₁); assay: microbe, parasite or virus in culture; settings: unidentified influenza virus, MDCK, 24 h, read-out: ED 50 (2) Virus Yield Test
[2] = system: influenza virus Ao/WSN (H₁N₁); assay: Antiviral activity: Plaque Reduction Test in MDCK cells; settings: unidentified influenza virus, read-out: ED 50 (1) Plaque Reduction Test
in vitro = settings: dog, mdck
Protocol: (3) Colony Formation Test The action to the host cell was examined by the following method: MDCK cells (coming from dog's kidney) were adjusted to a concentration of 200 cells/ml with a growth medium and poured into each pore of Lindbrow's 12 pores microplate 1 ml by 1 ml. The test compound diluted with a growth medium was added to the pores 1 ml by 1 ml, and the whole was cultivated in a cultivating apparatus filled with 5% carbon dioxide gas at 37°C for 7 days. After dyeing with 1% crystal violet dyeing solution for 15 min, the number of cell colonies was counted. The concentration of the test compound which inhibited 50% the growth of cell colonies in comparison with obtained without using the test compound was evaluated as TD₅₀ value for judging the toxicity against cell.

SMILES | MIC (Trichophyton asteroides) | minimal effective concentration (C. albicans KE-2) | other results
C=C(c1c(O)cccc1OCCCC)n1ccnc1 [Compound I-4] | 0.1 µg/mL (≈ 0.387 µM) | – | –
CCC(CC)=C(c1cc(Cl)ccc1O)n1ccnc1 [Compound I-5] | 0.1 µg/mL (≈ 0.361 µM) | 0.63 µg/mL | –
CCC(CC)=C(c1cc(Cl)ccc1O)n1cncn1 [Compound I-6] | 0.1 µg/mL (≈ 0.36 µM) | – | –
Oc1ccc(Cl)cc1/C(=C/c1ccc(Cl)cc1Cl)n1ccnc1 [Compound I-9] | 0.1 µg/mL (≈ 0.273 µM) | – | –
Oc1ccc(Cl)cc1C(=C1CCCCC1)n1ccnc1 [Compound I-22] | 0.1 µg/mL (≈ 0.346 µM) | – | –
C=C(c1cc(-c2ccccc2)ccc1OC)n1ccnc1 [Compound I-49] | 0.1 µg/mL (≈ 0.362 µM) | – | –
CCC(CC)=C(c1cc(Cl)ccc1OC)n1ccnc1 [Compound I-50] | 0.1 µg/mL (≈ 0.344 µM) | 0.31 µg/mL | –
CCCCOc1ccc(Cl)cc1C(=C(CC)CC)n1ccnc1 [Compound I-51] | – | 0.31 µg/mL | –
CCC(CC)=C(c1cc(Cl)ccc1OC(C)C)n1ccnc1 [Compound I-52] | 0.1 µg/mL (≈ 0.314 µM) | 0.08 µg/mL | –
COc1ccc(Cl)cc1C(=C1CCCCC1)n1ccnc1 [Compound I-56] | 0.1 µg/mL (≈ 0.33 µM) | – | –
COc1ccc(Cl)cc1C(=C1CCCCC1)n1cncn1 [Compound I-57] | – | – | EC50 [1]: 30 µg/mL (≈ 98.8 µM); EC50 [2]: 48 µg/mL (≈ 158 µM); CC50 at 168 h (in vitro): 70 µg/mL (≈ 230 µM)
CC(C)Oc1ccc(Cl)cc1C(=C1CCCCC1)n1cncn1 [Compound I-58] | – | 0.16 µg/mL | –
CC(C)Oc1ccc(Cl)cc1C(=C1CCCCC1)n1ccnc1 [Compound I-66] | 0.1 µg/mL (≈ 0.302 µM) | 0.08 µg/mL | –
C=C(c1cc(Cl)ccc1OCC(=O)c1ccc(Cl)cc1)n1ccnc1 [Compound I-107] | 0.1 µg/mL (≈ 0.268 µM) | – | –

From patent EP0227100A2, “N-Vinylimidazoles and -triazoles and pharmaceutical compositions containing them” (SHIONOGI SEIYAKU KABUSHIKI KAISHA, priority 1985, dated 1987)
